Read-outs that look alike come from different tables or passages of the source.
How the values were obtained:
[1] = target: T1, alkaline phosphatase (intestinal) (Bos taurus, UniProt P19111); assay: Alkaline phosphatase stability assay; format: in vitro ADME; settings: 2 μM substrate, 100 ng/mL purified Bovine intestinal alkaline phosphatase, Tris buffer pH 7.8; read-out: ALP half life
T1 construct: purchased MilliPore Sigma
Method: Alkaline Phosphatase Stability Assay
(§1) Alkaline phosphatase stability assays were carried out using purified Bovine intestinal alkaline phosphatase. Duplicate sets were performed with a TECAN liquid handler. Assay substrate concentrations were 2 μM. Purified Bovine intestinal alkaline phosphatase was acquired through MilliPore Sigma as a lyophilized powder. Reaction mixtures were prepared by the addition of 2 μL compound (400 μM stock solution in DMSO) into wells of a 96-well plate containing […] Tris buffer (100 mM, pH 7.8, 1 mM MgCl2 and 1 mM ZnCl2) with and without 100 ng/mL purified Bovine intestinal alkaline phosphatase. Samples were assessed at time points of 3, 30, 60, 120, 180 and 240 minutes. At each time point, 25 μL of the reaction mixtures were added into a 96-well plate containing 225 μL of quench solution (99% Acetonitrile with 1% Formic Acid and 100 nM Labetalol as internal standard). The plates containing the quench samples were then vortexed at 1100 RPM for 10 minutes and centrifuged at 4500 RPM for 20 minutes. 150 μL of the resulting supernatant was transferred into a 96-well plate containing 150 μL of water and vortexed at 1100 RPM for 3 minutes to mix.
(§2) Samples were analyzed with a Leap HTC Autosampler and a Dionex UltiMate 3000 HPLC system interfaced to a Thermo Q-Exactive mass spectrometer operating in positive ion electrospray mode. A Thermo Scientific Hypersil GOLD (1.9 μM particle size, 50×2.1 mm) HPLC column was used and mobile phase was pumped at 0.5 mL/min. Elution of analytes was achieved by a series of linear gradients of acetonitrile in water containing 0.1% (v/v) formic acid. Quantification was by analyte/internal standard peak area ratio (PAR).

[2] = Thermodynamic solubility in FaSSIF and FeSSIF; format: physicochemical; settings: 20 hours, ambient temperature
Method: Thermodynamic Solubility in FASSIF and FESSIF.
The aqueous solubility of compounds over a time of 20 hours was assessed. Solubility was determined at ambient temperature in buffered fasted-state simulated intestinal fluid (FaSSIF, pH 6.5) and buffered fed-state simulated intestinal fluid (FeSSIF, pH 5.0) prepared in-house using BioRelevant Simulated Intestinal Fluid (SIF) powder. Solids were added to FaSSIF or FeSSIF in 1.5-mL Eppendorf tubes, vortexed for 1 minute, then agitated for 20 hours in an Eppendorf ThermoMixer C. To determine concentration in solution, the suspensions were centrifuged for 10 min at 14,800 rpm and supernatants were diluted to a volume of 1 mL with 1:1 v/v acetonitrile:water. All diluted supernatants were analyzed by UPLC using a Waters Acquity UPLC with a PDA UV detector.

[3] = Assay buffer stability (Tris buffer without alkaline phosphatase); format: physicochemical; settings: 2 μM substrate, Tris buffer pH 7.8 without alkaline phosphatase
Method: as §1, §2

[4] = Kinetic solubility at pH 1 and 7; format: physicochemical; settings: 23 °C, kinetic from dmso stock, 1.0% DMSO
Method: Kinetic Solubility at pH 1 and 7
100-fold dilutions of each compound as DMSO stock solution were prepared by combining 3 μL of DMSO stock with 297 μL of the appropriate media in a Millipore solubility filter plate with 0.45 μM polycarbonate filter membrane using Hamilton Starlet liquid handling. The final DMSO Concentration is 1.0% and maximum theoretical compound concentration is […] (assuming stock concentration of 10 mM). The filter plate was sealed. Following 24-hour incubation at ambient temperature (22.2-23.6° C.), the samples were vacuum filtered, and the filtrates were collected in a 96 well polypropylene plate for analysis. The collection plate was sealed for analysis. Filtrates were injected into the nitrogen detector for quantification. The equimolar nitrogen response of the detector is calibrated using standards which span the dynamic range of the instrument from 0.08 to 4500 μg/ml nitrogen. The filtrates were quantified with respect to this calibration curve. The calculated solubility values are corrected for background nitrogen present in the DMSO, and the media used to prepare the samples

[5] = In vivo rat pharmacokinetics; settings: Wister Han rats, 100 mg-eq/kg
Method: In Vivo Rat Pharmacokinetics Experiments
In vivo Wister Han rat pharmacokinetic experiments of compound Comparator C and Example 4 were assessed as follows.
Compound Comparator C was dosed as a 100 mg/kg suspension to Wister Han rats (N=3) using the following formulation:30% captisol, 5% soluplus, 65% pH 2 water. Compound 1170997 was dosed separately as a 100 mg-eq/kg (123 mg/kg) solution to Wister Han rats (N=3) using the following formulation: 0.5% Methocel E4M Premium, 0.1% Tween-80, 99.4% Water. Samples were assessed for the presence of Comparator C.
Comparator C and Example 4. […] As is shown in Table 4, the AUC 0-24 h measured for Comparator C in plasma was higher after dosing with Example 4 than the value measured after dosing with an equivalent dose of Comparator C.

T1 sequence (P19111 20-506 limits assumed): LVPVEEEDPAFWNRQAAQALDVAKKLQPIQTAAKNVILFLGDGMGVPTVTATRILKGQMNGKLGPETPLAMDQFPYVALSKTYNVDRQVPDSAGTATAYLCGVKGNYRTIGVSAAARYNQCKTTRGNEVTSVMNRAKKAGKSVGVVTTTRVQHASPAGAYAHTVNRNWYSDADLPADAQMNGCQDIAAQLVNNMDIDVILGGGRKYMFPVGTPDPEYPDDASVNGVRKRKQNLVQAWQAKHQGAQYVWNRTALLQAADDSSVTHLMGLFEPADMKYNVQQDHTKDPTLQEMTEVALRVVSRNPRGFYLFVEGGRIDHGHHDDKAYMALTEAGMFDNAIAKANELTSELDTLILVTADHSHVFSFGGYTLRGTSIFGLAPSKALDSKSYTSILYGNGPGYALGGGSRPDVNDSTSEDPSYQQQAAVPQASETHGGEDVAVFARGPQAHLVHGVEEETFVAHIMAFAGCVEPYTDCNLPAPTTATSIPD

half-life at 2 µM [1]: 4 min | FaSSIF (pH 6.5) ([2]; fasted-state simulated intestinal fluid pH 6.5): 1100 ug/mL | FeSSIF (pH 5.0) ([2]; fed-state simulated intestinal fluid pH 5.0): >5400 ug/mL | half-life at 2 µM [3]: > 1580 min | solubility kinetic at 24 h ([4]; aqueous buffer, pH 7, 24-hour incubation at ambient temperature, read-out: Kinetic Solubility pH 7): > 100 µM | solubility kinetic at 24 h ([4]; simulated gastric fluid, pH 1, 24-hour incubation at ambient temperature, read-out: Kinetic Solubility pH 1): 96 µM | AUC 0-24 h measured for Comparator C in plasma, compared with dosing an equivalent dose of Comparator C [5]: higher
SMILES: O=c1[nH]c(=O)n(COP(=O)(O)O)cc1-c1cc([C@H]2C[C@@H]2c2ccc3cnn(CC(F)(F)F)c3c2)c2ncc(F)n2n1 [Example 4, (5-(3-fluoro-8-((1S,2S)-2-(1-(2,2,2-trifluoroethyl)-1H-indazol-6-yl)cyclopropyl)imidazo[1,2-b]pyridazin-6-yl)-2,4-dioxo-3,4-dihydropyrimidin-1(2H)-yl)methyl dihydrogen phosphate]

Source: patent publication US11919869B2, “CD73 compounds” (Gilead Sciences, Inc., priority 2021, dated 2024)
